Measurements taken from patent publication US12239711B2, “Cereblon ligands and bifunctional compounds comprising the same” (Arvinas Operations, Inc., priority 2014, dated 2025).

Assays:
[1] = molecular target: T1, BRaf (Homo sapiens, UniProt P15056, V600E); assay: BRaf protein degradation assay in A375 cells (western blot / In-Cell Western); assay type: cell-based; conditions: for Dmax: A-375
T1 construct: endogenous in cells; host or cells: A375 cells
Method: 5. BRaf Protein In Vitro Degradation Assay (A375 Cells) of Table 7
A375 cells were cultured in ATCC DMEM+10% FBS in 12 well plates, and treated with indicated compound from Tables 1-41 or 0.1% DMSO vehicle control for 16 hours. Cells were harvested in Cell Signaling lysis buffer (Cat #9803) with the addition of Roche protease inhibitor tablets (Cat #11873580001), and lysates clarified by microcentrifugation. Proteins were separated by SDS-PAGE, and transferred onto nitrocellulose membranes using an Invitrogen iBlot system. Immunoblotting was performed for BRaf (Santa Cruz Cat #9002), CRAF (BD Cat #610151), and pErk (Cell Signaling Cat #9106). GAPDH (Cell Signaling Cat #2118) was used as a loading control. Quantification was carried out using the BioRad Image Lab 5 software.
6. BRaf In-Cell Western Cellular Degradation Assay (A375 Cells) of Table 7
A375 cells were cultured in ATCC DMEM+10% FBS in 96-well plates, and treated with indicated compounds from Tables-43 or 0.1% DMSO vehicle control for 72 hours. Cells were washed with PBS 1×, and affixed to plate using 4% PFA in phosphate buffered saline for 15 minutes; washed 1× and permeabilized using 0.1% Triton-X-100 in PBS for 5 minutes; washed 1× and blocked with LICOR blocker (Cat. #927-50000) for 1 hour. Cells were then incubated with B-Raf antibody (Santa Cruz Cat #9002, Santa Cruz Cat #528) and tubulin antibody (Sigma #T6074) in LICOR blocker for 18 hours. Cells were washed 3× prior to adding secondary antibodies (LICOR cat #926-32210 and 926-68071) and incubated for 1 hour. Cells were washed 3× and imaged using LICOR Odyssey Software.

[2] = molecular target: T2, BRD4 (Homo sapiens, UniProt O60885); assay: BRD4 Western protocol in 22Rv-1 or VCaP cells; assay type: cell-based; conditions: 16 hours, western blot
T2 construct: 22Rv-1 or VCaP cells were purchased from ATCC and cultured in Dulbecco's Modified Eagle's Medium; host or cells: 22Rv-1 or VCaP cells
Method: 7. BRD4 Western Protocol for Table 8
22Rv-1 or VCaP cells were purchased from ATCC and cultured in Dulbecco's Modified Eagle's Medium (ATCC), supplemented with 10% FBS (ATCC) and Penicillin/Streptomycin (Life Technologies). DMSO control and compound treatments (0.003 μM, 0.01 μM, 0.03 μM and 0.1 μM) were performed in 12-well plates for 16 hours. Cells were harvested, and lysed in RIPA buffer (50 mM Tris pH8, 150 mM NaCl, 1% Tx-100, 0.1% SDS, 0.5% sodium deoxycholate) supplemented with protease and phosphatase inhibitors. Lysates were clarified at 16,000 g for 10 minutes, and protein concentration was determined. Equal amount of protein (20 μg) was subjected to SDS-PAGE analysis and followed by immunoblotting according to standard protocols. The antibodies used were BRD4 (Cell Signaling #13440), and Actin (Sigma #5441). Detection reagents were Clarity Western ECL substrate (Bio-rad #170-5060).

T1 sequence (P15056 whole entry V600E): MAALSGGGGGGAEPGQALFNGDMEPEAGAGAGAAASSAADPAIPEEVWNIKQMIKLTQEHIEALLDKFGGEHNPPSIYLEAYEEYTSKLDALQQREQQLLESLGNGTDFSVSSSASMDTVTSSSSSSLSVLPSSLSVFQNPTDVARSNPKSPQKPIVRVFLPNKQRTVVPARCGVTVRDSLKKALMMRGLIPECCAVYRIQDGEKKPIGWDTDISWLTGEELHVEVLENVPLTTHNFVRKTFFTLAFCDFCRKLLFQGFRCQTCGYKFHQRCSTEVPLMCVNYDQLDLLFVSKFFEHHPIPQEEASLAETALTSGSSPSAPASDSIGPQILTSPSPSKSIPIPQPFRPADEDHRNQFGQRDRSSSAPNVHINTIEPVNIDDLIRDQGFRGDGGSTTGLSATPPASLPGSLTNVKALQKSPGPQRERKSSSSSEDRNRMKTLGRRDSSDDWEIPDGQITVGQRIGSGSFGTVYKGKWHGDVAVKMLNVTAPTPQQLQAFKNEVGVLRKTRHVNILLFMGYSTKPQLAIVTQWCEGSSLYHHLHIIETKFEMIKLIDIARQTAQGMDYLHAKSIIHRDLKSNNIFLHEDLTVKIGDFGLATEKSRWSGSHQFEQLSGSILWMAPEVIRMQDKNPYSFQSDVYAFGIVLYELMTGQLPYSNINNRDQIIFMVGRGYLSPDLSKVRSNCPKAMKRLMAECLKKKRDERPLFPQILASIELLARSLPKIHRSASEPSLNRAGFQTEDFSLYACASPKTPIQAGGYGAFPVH
T1 sequence (Q96SW2 whole entry partner): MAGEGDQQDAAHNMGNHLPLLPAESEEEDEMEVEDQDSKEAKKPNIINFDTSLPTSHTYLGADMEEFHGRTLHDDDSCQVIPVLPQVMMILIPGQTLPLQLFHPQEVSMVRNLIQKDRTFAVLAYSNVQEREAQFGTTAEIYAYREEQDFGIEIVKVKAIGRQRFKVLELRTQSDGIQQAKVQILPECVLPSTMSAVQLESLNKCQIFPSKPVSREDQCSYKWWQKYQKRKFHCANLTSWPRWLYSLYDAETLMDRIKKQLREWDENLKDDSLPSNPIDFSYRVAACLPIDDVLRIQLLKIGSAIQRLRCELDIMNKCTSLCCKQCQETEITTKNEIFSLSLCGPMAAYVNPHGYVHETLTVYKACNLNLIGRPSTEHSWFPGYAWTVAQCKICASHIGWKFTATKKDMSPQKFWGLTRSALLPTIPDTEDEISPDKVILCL

Row | SMILES | DC50 [1] | Dmax [1] | DC50 [2] | Dmax [2]
1 | O=C1CCC(N2C(=O)c3cc(N4CCN(c5ccc(-n6cc(-c7ccc8c(c7)CC/C8=N\O)c(-c7ccncc7)n6)cc5)CC4)cc(-c4ccccc4)c3C2=O)C(=O)N1 (centres unmarked) [compound 39, (E)-2-(2,6-dioxopiperidin-3-yl)-6-(4-(4-(4-(1-(hydroxyimino)-2,3-dihydro-1H-inden-5-yl)-3-(pyridin-4-yl)-1H-pyrazol-1-yl)phenyl)piperazin-1-yl)-4-phenylisoindoline-1,3-dione] | 10 to 100 nM | 50 to 75% |  | 
2 | Cc1cc2c(cc1N1CCN(c3ccc(-n4cc(-c5ccc6c(c5)CC/C6=N\O)c(-c5ccncc5)n4)cc3)CC1)C(=O)N(C1CCC(=O)NC1=O)C2=O (centres unmarked) [compound 40, (E)-2-(2,6-dioxopiperidin-3-yl)-5-(4-(4-(4-(1-(hydroxyimino)-2,3-dihydro-1H-inden-5-yl)-3-(pyridin-4-yl)-1H-pyrazol-1-yl)phenyl)pipeiazin-1-yl)-6-methylisoindoline-1,3-dione] | 10 to 100 nM | ≥ 75% |  | 
3 | O=C1CCC(N2C(=O)c3ccc(N4CCN(c5ccc(-n6cc(-c7ccc8c(c7)CC/C8=N\O)c(-c7ccncc7)n6)cc5)CC4)c(-c4ccccc4)c3C2=O)C(=O)N1 (centres unmarked) [compound 41, (E)-2-(2,6-dioxopiperidin-3-yl)-5-(4-(4-(4-(1-(hydroxyimino)-2,3-dihydro-1H-inden-5-yl)-3-(pyridin-4-yl)-1H-pyrazol-1-yl)phenyl)piperazin-1-yl)-4-phenylisoindoline-1,3-dione] | 10 to 100 nM | ≥ 75% |  | 
4 | Cc1c(N2CCN(c3ccc(-n4cc(-c5ccc6c(c5)CC/C6=N\O)c(-c5ccncc5)n4)cc3)CC2)ccc2c1C(=O)N(C1CCC(=O)NC1=O)C2=O (centres unmarked) [compound 42, (E)-2-(2,6-dioxopiperidin-3-yl)-5-(4-(4-(4-(1-(hydroxyimino)-2,3-dihydro-1H-inden-5-yl)-3-(pyridin-4-yl)-1H-pyrazol-1-yl)phenyl)piperazin-1-yl)-4-methylisoindoline-1,3-dione] | 10 to 100 nM | 50 to 75% |  | 
5 | Cc1sc2c(c1C)C(c1ccc(Cl)cc1)=N[C@@H](CC(=O)Nc1ccc(OCCOCCOCCOCCNc3cccc4c3CN([C@H]3CCC(=O)NC3)C4=O)cc1)c1nnc(C)n1-2 [compound 43, 2-((R)-4-(4-chlorophenyl)-2,3,9-trimethyl-6H-thieno[3,2-f][1,2,4]triazolo[4,3-a][1,4]diazepin-6-yl)-N-(4-(2-(2-(2-(2-((1-oxo-2-((R)-6-oxopiperidin-3-yl)isoindolin-4-yl)amino)ethoxy)ethoxy)ethoxy)ethoxy)phenyl)acelamide] |  |  | ≥ 100 nM | 50 to 75%
6 | Cc1sc2c(c1C)C(c1ccc(Cl)cc1)=N[C@@H](CC(=O)Nc1ccc(OCCOCCOCCOCCOc3cccc4c(=O)n(C5CCC(=O)NC5=O)c(C)nc34)cc1)c1nnc(C)n1-2 (stereo partly drawn) [compound 44, 2-((S)-4-(4-chlorophenyl)-2,3,9-trimethyl-6H-thieno[3,2-f][1,2,4]triazolo[4,3-a][1,4]diazepin-6-yl)-N-(4-(2-(2-(2-(2-((3-(2,6-dioxopiperidin-3-yl)-2-methyl-4-oxo-3,4-dihydroquinazolin-8-yl)oxy)ethoxy)ethoxy)ethoxy)ethoxy)phenyl)acetamide] |  |  | ≥ 100 nM | < 50%
7 | Cc1sc2c(c1C)C(c1ccc(Cl)cc1)=N[C@@H](CC(=O)Nc1ccc(OCCOCCOCCOCCOc3ccc4c(=O)n(C5CCC(=O)NC5=O)c(C)nc4c3)cc1)c1nnc(C)n1-2 (stereo partly drawn) [compound 45, 2-((S)-4-(4-chlorophenyl)-2,3,9-trimethyl-6H-thieno[3,2-f][1,2,4]triazolo[4,3-a][1,4]diazepin-6-yl)-N-(4-(2-(2-(2-(2-((3-(2,6-dioxopiperidin-3-yl)-2-methyl-4-oxo-3,4-dihydroquinazolin-7-yl)oxy)ethoxy)ethoxy)ethoxy)ethoxy)phenyl)acetamide] |  |  | 10 to 100 nM | ≥ 75%
